In ChEMBL document CHEMBL4680085 (J Med Chem, 2016):
Calls of active or inactive are those of the source. The calls are words filed in the database; no cut-off is given here.

How the values were obtained:
in vitro [1] = conditions: human, HepG2 cells
Description: Toxicity in human HepG2 cells assessed as cell viability at 100 uM by MTT assay relative to control

SH-SY5Y [2] = experiment: Neuroprotection in human SH-SY5Y cells assessed as reduction in beta-amyloid peptide (1-40)-induced cell death at 1 uM incubated for 24 hrs by MTT assay; type: functional; parameters: scale not given: the % may be the effect or the level left
[3] = Effective permeability at 100 uM after 3 to 6 hrs by PAMPA assay; type: ADME; conditions: time 3-6 hrs, read-out: Peff
SH-SY5Y [4] = experiment: Neuroprotection in human SH-SY5Y cells assessed as reduction in H2O2-induced cell death at 1 uM incubated for 24 hrs by MTT assay; type: functional; parameters: scale not given: the % may be the effect or the level left
SH-SY5Y [5] = experiment: Neuroprotection in human SH-SY5Y cells assessed as reduction in Rotenone/Oligomycin A -induced cell death at 3 uM incubated for 24 hrs by MTT assay; type: functional; parameters: scale not given: the % may be the effect or the level left
SH-SY5Y [6] = experiment: Neuroprotection in human SH-SY5Y cells assessed as reduction in Rotenone/Oligomycin A -induced cell death at 1 uM incubated for 24 hrs by MTT assay; type: functional; parameters: scale not given: the % may be the effect or the level left
SH-SY5Y [7] = experiment: Neuroprotection in human SH-SY5Y cells assessed as reduction in beta-amyloid peptide (1-40)-induced cell death at 3 uM incubated for 24 hrs by MTT assay; type: functional; parameters: scale not given: the % may be the effect or the level left
SH-SY5Y [8] = experiment: Neuroprotection in human SH-SY5Y cells assessed as reduction in beta-amyloid peptide (1-42)-induced cell death at 3 uM incubated for 24 hrs by MTT assay; type: functional; parameters: scale not given: the % may be the effect or the level left
Cholinesterase [9] = biological target: Cholinesterase (Equus caballus, UniProt P81908)
Cholinesterase (Equus caballus, UniProt P81908), sequence (P81908 whole entry): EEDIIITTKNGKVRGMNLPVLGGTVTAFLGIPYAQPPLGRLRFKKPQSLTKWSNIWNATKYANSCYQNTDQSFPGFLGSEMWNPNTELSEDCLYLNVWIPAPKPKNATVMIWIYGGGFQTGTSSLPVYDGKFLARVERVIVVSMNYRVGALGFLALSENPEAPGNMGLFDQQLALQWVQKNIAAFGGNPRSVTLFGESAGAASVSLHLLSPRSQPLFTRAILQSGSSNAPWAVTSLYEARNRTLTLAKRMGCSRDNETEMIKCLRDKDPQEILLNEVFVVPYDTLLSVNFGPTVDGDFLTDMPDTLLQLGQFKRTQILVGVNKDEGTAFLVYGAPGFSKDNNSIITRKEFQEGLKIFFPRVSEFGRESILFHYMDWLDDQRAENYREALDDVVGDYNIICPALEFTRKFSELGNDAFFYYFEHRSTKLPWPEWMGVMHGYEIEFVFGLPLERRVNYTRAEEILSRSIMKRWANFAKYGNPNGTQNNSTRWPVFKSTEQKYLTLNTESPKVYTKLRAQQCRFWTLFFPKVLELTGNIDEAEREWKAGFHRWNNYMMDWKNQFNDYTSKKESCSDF
Description: Inhibition of horse serum BuChE pre-incubated for 10 mins before addition of butyrylthiocholine iodide substrate and further incubated for 15 mins by Ellman's method

SH-SY5Y [10] = experiment: Neuroprotection in human SH-SY5Y cells assessed as reduction in H2O2-induced cell death at 3 uM incubated for 24 hrs by MTT assay; type: functional
Acetylcholinesterase [11] = biological target: Acetylcholinesterase (Electrophorus electricus, UniProt O42275); experiment: Inhibition of Electrophorus electricus AChE pre-incubated for 10 mins before addition of acetylthiocholine iodide substrate and further incubated for 15 mins by Ellman's method
Acetylcholinesterase (Electrophorus electricus, UniProt O42275), sequence (O42275 whole entry): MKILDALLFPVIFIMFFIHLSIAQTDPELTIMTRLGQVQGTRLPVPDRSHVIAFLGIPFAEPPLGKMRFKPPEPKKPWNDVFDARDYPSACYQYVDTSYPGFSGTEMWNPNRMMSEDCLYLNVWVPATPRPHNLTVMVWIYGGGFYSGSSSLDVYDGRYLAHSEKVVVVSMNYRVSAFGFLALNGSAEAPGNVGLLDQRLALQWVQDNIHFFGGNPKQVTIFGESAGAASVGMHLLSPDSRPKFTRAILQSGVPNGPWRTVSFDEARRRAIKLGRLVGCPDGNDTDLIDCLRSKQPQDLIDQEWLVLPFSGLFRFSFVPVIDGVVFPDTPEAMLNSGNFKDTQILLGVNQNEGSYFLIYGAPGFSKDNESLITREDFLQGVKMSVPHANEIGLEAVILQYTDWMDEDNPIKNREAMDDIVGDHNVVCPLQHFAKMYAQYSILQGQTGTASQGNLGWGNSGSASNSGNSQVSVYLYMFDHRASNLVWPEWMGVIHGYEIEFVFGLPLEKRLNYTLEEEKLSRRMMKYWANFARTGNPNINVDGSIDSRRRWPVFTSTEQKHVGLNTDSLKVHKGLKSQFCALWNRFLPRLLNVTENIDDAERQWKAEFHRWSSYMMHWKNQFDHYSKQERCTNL

[12] = biological target: T1, Nuclear factor erythroid 2-related factor 2 (Homo sapiens) (UniProt Q16236); experiment: Activation of NRF2 in human MCF-7/AREc32 cells at 3 uM incubated for 24 hrs by luciferase reporter gene assay; type: cell-based; conditions: MCF7, filed as activator
T1 sequence (whole entry): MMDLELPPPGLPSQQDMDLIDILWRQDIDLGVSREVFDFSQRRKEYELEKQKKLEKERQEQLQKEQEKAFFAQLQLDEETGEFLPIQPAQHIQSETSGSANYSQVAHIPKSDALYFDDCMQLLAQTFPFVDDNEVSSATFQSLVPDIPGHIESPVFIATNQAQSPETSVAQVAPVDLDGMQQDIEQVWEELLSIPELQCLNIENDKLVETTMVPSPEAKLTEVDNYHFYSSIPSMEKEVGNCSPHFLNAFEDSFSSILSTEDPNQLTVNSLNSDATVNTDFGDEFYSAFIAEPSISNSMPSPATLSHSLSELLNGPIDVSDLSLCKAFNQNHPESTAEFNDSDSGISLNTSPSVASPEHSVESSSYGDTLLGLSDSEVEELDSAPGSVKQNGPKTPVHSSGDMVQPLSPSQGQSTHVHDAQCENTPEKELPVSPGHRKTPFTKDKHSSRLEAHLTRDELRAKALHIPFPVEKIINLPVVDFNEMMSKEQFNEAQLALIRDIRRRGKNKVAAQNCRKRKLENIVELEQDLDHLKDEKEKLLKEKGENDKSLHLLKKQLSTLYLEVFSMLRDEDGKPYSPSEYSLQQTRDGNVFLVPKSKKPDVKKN

SH-SY5Y [13] = experiment: Neuroprotection in human SH-SY5Y cells assessed as reduction in beta-amyloid peptide (1-42)-induced cell death at 1 uM incubated for 24 hrs by MTT assay; type: functional; parameters: scale not given: the % may be the effect or the level left
[14] = biological target: T1, Nuclear factor erythroid 2-related factor 2 (Homo sapiens); experiment: Activation of NRF2 in human MCF-7/AREc32 cells at 10 to 30 uM incubated for 24 hrs by luciferase reporter gene assay; type: cell-based; conditions: MCF7, filed as activator, dose 10-30 µM
Cholinesterase [15] = biological target: T2, Cholinesterase (Homo sapiens, UniProt P06276); experiment: Inhibition of BuChE in human erythrocyte hemo-lyzates pre-incubated for 5 mins before addition of butyrylthiocholine iodide substrate by Ellman's method; type: tissue-based
T2 sequence (P06276 whole entry): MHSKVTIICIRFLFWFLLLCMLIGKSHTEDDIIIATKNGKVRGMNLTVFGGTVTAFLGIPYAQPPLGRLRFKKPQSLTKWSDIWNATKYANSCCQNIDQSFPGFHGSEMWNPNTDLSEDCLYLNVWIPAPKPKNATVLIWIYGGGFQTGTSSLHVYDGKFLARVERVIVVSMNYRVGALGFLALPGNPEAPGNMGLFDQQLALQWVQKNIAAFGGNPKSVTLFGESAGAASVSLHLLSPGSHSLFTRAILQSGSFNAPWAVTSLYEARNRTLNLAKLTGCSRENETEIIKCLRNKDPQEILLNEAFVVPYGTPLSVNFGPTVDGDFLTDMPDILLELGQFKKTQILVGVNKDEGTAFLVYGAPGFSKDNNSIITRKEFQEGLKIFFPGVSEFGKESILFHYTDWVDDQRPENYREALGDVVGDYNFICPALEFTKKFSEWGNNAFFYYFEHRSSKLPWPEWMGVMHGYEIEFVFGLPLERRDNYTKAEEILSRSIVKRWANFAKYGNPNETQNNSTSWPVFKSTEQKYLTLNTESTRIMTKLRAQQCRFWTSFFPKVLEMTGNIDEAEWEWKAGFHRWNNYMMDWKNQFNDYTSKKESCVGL

Acetylcholinesterase [16] = biological target: T3, Acetylcholinesterase (Homo sapiens, UniProt P22303); experiment: Inhibition of AChE in human erythrocyte hemo-lyzates pre-incubated for 5 mins before addition of acetylthiocholine iodide substrate by Ellman's method; type: tissue-based
T3 sequence (P22303 whole entry): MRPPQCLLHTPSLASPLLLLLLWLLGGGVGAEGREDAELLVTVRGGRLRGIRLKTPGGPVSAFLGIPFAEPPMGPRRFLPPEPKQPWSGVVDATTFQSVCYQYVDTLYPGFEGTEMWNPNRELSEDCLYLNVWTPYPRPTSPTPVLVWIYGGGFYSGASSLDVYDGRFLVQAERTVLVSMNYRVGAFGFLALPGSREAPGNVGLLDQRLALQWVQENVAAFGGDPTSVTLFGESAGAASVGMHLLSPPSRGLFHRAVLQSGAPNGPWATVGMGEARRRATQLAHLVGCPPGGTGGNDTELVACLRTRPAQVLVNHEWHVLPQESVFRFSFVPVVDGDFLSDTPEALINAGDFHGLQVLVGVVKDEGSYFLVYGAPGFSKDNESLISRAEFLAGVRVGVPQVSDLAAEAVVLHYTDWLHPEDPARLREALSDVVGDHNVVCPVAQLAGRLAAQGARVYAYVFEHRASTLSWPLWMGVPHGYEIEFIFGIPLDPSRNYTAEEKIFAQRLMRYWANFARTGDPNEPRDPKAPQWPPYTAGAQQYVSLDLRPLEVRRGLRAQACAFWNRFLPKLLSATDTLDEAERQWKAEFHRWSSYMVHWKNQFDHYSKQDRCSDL

[17] = biological target: T1, Nuclear factor erythroid 2-related factor 2 (Homo sapiens); experiment: Activation of NRF2 in human MCF-7/AREc32 cells assessed as concentration required to double Nrf2 transcriptional pathway by measuring specific luciferase reporter activity incubated for 24 hrs by luciferase reporter gene assay; type: cell-based; conditions: MCF7, filed as activator
in vitro [18] = conditions: human, HepG2 cells; remark: listed apart in the source
Description: Toxicity in human HepG2 cells assessed as cell viability at 300 uM by MTT assay relative to control

in vitro [19] = conditions: human, HepG2 cells; remark: listed apart in the source
Description: Toxicity in human HepG2 cells assessed as cell viability at 1000 uM by MTT assay relative to control

Acetylcholinesterase [20] = biological target: T3, Acetylcholinesterase; experiment: Mixed type inhibition of AChE in human erythrocyte hemo-lyzates using acetylthiocholine iodide substrate by Ellman's method based Lineweaver-Burk plot analysis; type: tissue-based
Cholinesterase [21] = biological target: T2, Cholinesterase; experiment: Competitive type inhibition of BuChE in human erythrocyte hemo-lyzates using […] substrate by Ellman's method based Lineweaver-Burk plot analysis; type: tissue-based
Acetylcholinesterase [22] = biological target: T3, Acetylcholinesterase; experiment: Potency index, ratio of IC50 for tacrine to IC50 for test compound for inhibition of AChE in human erythrocyte hemo-lyzates pre-incubated for 5 mins before addition of acetylthiocholine iodide substrate by Ellman's method; type: tissue-based
Cholinesterase [23] = biological target: T2, Cholinesterase; experiment: Potency index, ratio of IC50 for tacrine to IC50 for test compound for inhibition of BuChE in human erythrocyte hemo-lyzates pre-incubated for 5 mins before addition of butyrylthiocholine iodide substrate by Ellman's method; type: tissue-based
[24] = biological target: Cholinesterase (Equus caballus) (UniProt P81908); experiment: Potency index, ratio of IC50 for tacrine to IC50 for test compound for inhibition of horse serum BuChE
Cholinesterase (Equus caballus), sequence (P81908 whole entry): as the sequence (P81908 whole entry) above

[25] = biological target: Acetylcholinesterase (Electrophorus electricus) (UniProt O42275); experiment: Potency index, ratio of IC50 for tacrine to IC50 for test compound for inhibition of Electrophorus electricus AChE
Acetylcholinesterase (Electrophorus electricus), sequence (O42275 24-633 limits assumed): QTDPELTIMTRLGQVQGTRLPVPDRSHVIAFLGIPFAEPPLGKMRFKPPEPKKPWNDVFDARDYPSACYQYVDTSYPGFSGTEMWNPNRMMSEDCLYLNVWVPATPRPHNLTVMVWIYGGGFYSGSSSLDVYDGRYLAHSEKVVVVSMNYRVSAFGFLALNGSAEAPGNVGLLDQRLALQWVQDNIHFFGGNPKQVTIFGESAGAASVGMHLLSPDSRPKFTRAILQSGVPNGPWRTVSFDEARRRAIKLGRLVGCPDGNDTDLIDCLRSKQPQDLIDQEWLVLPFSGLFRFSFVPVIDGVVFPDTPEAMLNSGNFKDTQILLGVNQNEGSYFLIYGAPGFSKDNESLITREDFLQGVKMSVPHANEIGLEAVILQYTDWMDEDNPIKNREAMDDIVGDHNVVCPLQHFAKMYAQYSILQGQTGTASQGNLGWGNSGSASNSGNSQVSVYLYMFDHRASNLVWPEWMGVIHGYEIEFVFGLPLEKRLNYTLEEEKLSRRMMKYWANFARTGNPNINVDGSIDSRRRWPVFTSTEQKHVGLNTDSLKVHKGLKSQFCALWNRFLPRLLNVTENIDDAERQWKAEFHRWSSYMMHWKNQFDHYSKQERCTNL

`COc1ccc2nc3c(c(NCCCCCCCCN(CC(=O)NCCc4c[nH]c5ccc(OC)cc45)C(=O)/C=C/c4ccc(O)c(OC)c4)c2c1)CCCC3` gave a viability at 100 µM (in vitro [1]) of 61%, an Activity (SH-SY5Y [2]) of 56.3% and a Papp at 100 µM [3] of 1.8 ×10⁻⁶ cm/s. For the same molecule, the Activity (SH-SY5Y [4]) was 35.9%, the Activity (SH-SY5Y [5]) was 48% and the Activity (SH-SY5Y [6]) was 59.6%. It also gave an Activity (SH-SY5Y [7]) of 35.1%, an Activity (SH-SY5Y [8]) of 78.9% and an IC50 (Cholinesterase [9]) of 12 nM. For the same molecule, the Activity (SH-SY5Y [10]) was “inactive”, the IC50 (Acetylcholinesterase [11]) was 29.7 nM and the Activity [12] was “Active”. For the same molecule, the Activity (SH-SY5Y [13]) was 28%, the Activity [14] was “Active” and the IC50 (Cholinesterase [15]) was 336 nM. The IC50 (Acetylcholinesterase [16]) was > 10000 nM, the CD [17] was 5.99 µM and the viability at 300 µM (in vitro [18]) was 56%. It also gave a viability at 1000 µM (in vitro [19]) of 54.4%.
For `COc1ccc2nc3c(c(NCCCCCCCN(CC(=O)NCCc4c[nH]c5ccc(OC)cc45)C(=O)CCCC[C@@H]4CCSS4)c2c1)CCCC3`, the viability at 100 µM (in vitro [1]) was 62.8%, the IC50 (Cholinesterase [9]) was 5.38 nM and the IC50 (Acetylcholinesterase [11]) was 7.56 nM. For the same molecule, the IC50 (Cholinesterase [15]) was 2650 nM, the IC50 (Acetylcholinesterase [16]) was > 10000 nM and the viability at 300 µM (in vitro [18]) was 57.7%. For the same molecule, the viability at 1000 µM (in vitro [19]) was 48.9%.
`COc1ccc2nc3c(c(NCCCCCCN(CC(=O)NCCc4c[nH]c5ccc(OC)cc45)C(=O)/C=C/c4ccc(O)c(OC)c4)c2c1)CCCC3` showed a viability at 100 µM (in vitro [1]) of 70.3%, an Activity (SH-SY5Y [2]) of 12% and a Papp at 100 µM [3] of 2.2 ×10⁻⁶ cm/s. It also gave an Activity (SH-SY5Y [4]) of 22.9%, an Activity (SH-SY5Y [5]) of 29.2% and an Activity (SH-SY5Y [6]) of 39.2%. The Activity (SH-SY5Y [7]) was “inactive”, the Activity (SH-SY5Y [8]) was 50.2% and the IC50 (Cholinesterase [9]) was 2.97 nM. The Activity (SH-SY5Y [10]) was 42.8%, the IC50 (Acetylcholinesterase [11]) was 17.8 nM and the Activity (SH-SY5Y [13]) was 85.1%. The IC50 (Cholinesterase [15]) was 358 nM, the IC50 (Acetylcholinesterase [16]) was > 10000 nM and the CD [17] was 10.9 µM. For the same molecule, the viability at 300 µM (in vitro [18]) was 67.6% and the viability at 1000 µM (in vitro [19]) was 56.5%.
With `COc1ccc2[nH]cc(CCNC(=O)CN(CCCCCCCCNc3c4c(nc5ccccc35)CCCC4)C(=O)/C=C/c3ccc(O)c(OC)c3)c2c1` the inhibition (Acetylcholinesterase [20]) was “Active”, the viability at 100 µM (in vitro [1]) was 53.3% and the Activity (SH-SY5Y [2]) was 21.5%. The Papp at 100 µM [3] was 5.8 ×10⁻⁶ cm/s, the Activity (SH-SY5Y [4]) was 35.4% and the Activity (SH-SY5Y [5]) was 59.4%. It also gave an Activity (SH-SY5Y [6]) of 44.8%, an Activity (SH-SY5Y [7]) of 66.3% and an Activity (SH-SY5Y [8]) of 5.3%. It also gave an IC50 (Cholinesterase [9]) of 2.26 nM, an Activity (SH-SY5Y [10]) of 51.3% and an IC50 (Acetylcholinesterase [11]) of 13.9 nM. For the same molecule, the Activity (SH-SY5Y [13]) was 34.5%, the IC50 (Cholinesterase [15]) was 23.5 nM and the IC50 (Acetylcholinesterase [16]) was 43.7 nM. For the same molecule, the CD [17] was 15.7 µM, the inhibition (Cholinesterase [21]) was “Active” and the viability at 300 µM (in vitro [18]) was 51.3%. It also gave a Ratio IC50 (Acetylcholinesterase [22]) of 6.91, a viability at 1000 µM (in vitro [19]) of 49.7% and a Ratio IC50 (Cholinesterase [23]) of 6.91.
Molecule `COc1ccc2[nH]cc(CCNC(=O)CN(CCCCCCCCNc3c4c(nc5ccccc35)CCCC4)C(=O)CCCC[C@@H]3CCSS3)c2c1` has a Ratio IC50 [24] of 4, a viability at 100 µM (in vitro [1]) of 86.2% and a Papp at 100 µM [3] of 6.9 ×10⁻⁶ cm/s. The Ratio IC50 [25] was 12.2, the IC50 (Cholinesterase [9]) was 1.25 nM and the IC50 (Acetylcholinesterase [11]) was 3.62 nM. The IC50 (Cholinesterase [15]) was 211 nM, the IC50 (Acetylcholinesterase [16]) was 180 nM and the viability at 300 µM (in vitro [18]) was 58.9%. It also gave a viability at 1000 µM (in vitro [19]) of 48.8%.
With `COc1ccc2nc3c(c(NCCCCCCN(CC(=O)NCCc4c[nH]c5ccc(OC)cc45)C(=O)CCCC[C@@H]4CCSS4)c2c1)CCCC3` the viability at 100 µM (in vitro [1]) was 68.7%, the IC50 (Cholinesterase [9]) was 3.92 nM and the IC50 (Acetylcholinesterase [11]) was 16 nM. The IC50 (Cholinesterase [15]) was 1880 nM, the IC50 (Acetylcholinesterase [16]) was > 10000 nM and the viability at 300 µM (in vitro [18]) was 46.4%. The viability at 1000 µM (in vitro [19]) was 44.8%.
